Test results reported in patent US20250326748A1, “COMPOUNDS AND METHODS FOR MODULATING SPLICING” (REMIX THERAPEUTICS INC., priority 2022, published 2025).
Structures can show the parent of a compound that is named as a salt. Where two headings read alike, the source gives them in different places.

Tests used:
K562 cells = assay: Cell viability, Cell Titer Glo 2.0 assay, K562; settings: 72 hours
Protocol: Compounds described herein were screened for toxicity in K562 (human chronic myelogenous leukemia) and SH-SY5Y (human neuroblastoma) cells using a Cell Titer Glo 2.0 assay.
• Promega CellTiter-Glo® 2.0 Cell Viability Assay (cat #G9241) • Corning 384-well TC-treated microplates (cat #3570)
Cells were plated at 500 cells/well (K562 cells) in 45 μL of IMDM supplemented with 10% FBS in a 384-well opaque plate. Wells containing only medium were used as a blank control. Test compounds (e.g., compounds of Formula (I) or (II)) were first serially diluted in DMSO then diluted 1:100 with IMDM+10% FBS. The final concentration of DMSO was 0.1% in each well. The cells were incubated for 72 hours at 37° C. and 5% CO2 before assaying with Cell Titer Glo 2.0 reagent.

MYB mRNA = assay: Splicing RT-qPCR assay, MYB canonical (CJ) and alternative (AJ) junction mRNA; assay type: cell-based, human; settings: Homo sapiens; for IC50: canonical junction mRNA; for AC50: alternative junction mRNA, read-out: MYB AJ (AC50, increase in AJ mRNA)
Protocol: (§1) Compounds described herein were used to modulate RNA transcript abundance in cells. The expression of a target mRNA was measured by detecting the formation of an exon-exon junction in the canonical transcript (CJ). A compound mediated exon-inclusion event was detected by observing an increase in formation of a new junction with an alternative exon (AJ). Real-time qPCR assays were used to detect these splicing switches and interrogate the potency of various compounds towards different target genes. A high-throughput real time quantitative PCR (RT-qPCR) assay was developed to measure these two isoforms of the mRNA (CJ and AJ) for exemplary genes, such as HTT, SMN2, and MYB, together with a control housekeeping gene, GAPDH or GUSB or PPIA, used for normalization. Briefly, the A673 or K562 cell line was treated with various compounds described herein (e.g., compounds of Formula (D). After treatment, the levels of the HTT, MYB, or SMN2 mRNA targets were determined from each sample of cell lysate by cDNA synthesis followed by qPCR.
(§2) • Cells-to-CT 1-step kit: ThermoFisher A25602, Cells-to-CT lysis reagent: ThermoFisher 4391851C, TaqMan™ Fast Virus 1-Step Master Mix: ThermoFisher 4444436 • GAPDH: VIC-PL, ThermoFisher 4326317E (Assay: Hs99999905_m1)—used for K562/suspension cell lines • GUSB: VIC-PL, ThermoFisher 4326320E (Assay: Hs99999908_m1)—used for K562/suspension cell lines • PPIA: VIC-PL, ThermoFisher 4326316E (Assay: Hs99999904_m1)—used for A673/adherent cell lines
(§3) The A673 cell line was cultured in DMEM with 10% FBS. Cells were diluted with full growth media and plated in a 96-well plate (15,000 cells in 100 ul media per well). The plate was incubated at 37° C. with 5% CO2 for 24 hours to allow cells to adhere. An 11-point 3-fold serial dilution of the compounds was made in DMSO then diluted in media in an intermediate plate. Compounds were transferred from the intermediate plate to the cell plate with the top dose at a final concentration of 10 uM in the well. Final DMSO concentration was kept at or below 0.25%. The cell plate was returned to the incubator at 37° C. with 5% CO2 for an additional 24 hours.
(§4) The K562 cell line was cultured in IMDM with 10% FBS. For K562, cells were diluted with full growth media and plated in either a 96-well plate (50,000 cells in 50 uL media per well) or a 384-well plate (8,000-40,000 cells in 45 uL media per well). An 11-point 3-fold serial dilution of the compounds were made in DMSO then diluted in media in an intermediate plate. Compound was transferred from the intermediate plate to the cell plate with the top dose at a final concentration of 10 uM in the well. Final DMSO concentration was kept at or below 0.25%. Final volume was 100 uL for 96-well plate and 50 uL for 384-well plate. The cell plate was then placed in an incubator at 37° C. with 5% CO2 for 24 hours.
(§5) The cells were then gently washed with 50 uL-100 uL cold PBS before proceeding to addition of lysis buffer. 30 uL-50 μL of room temperature lysis buffer with DNAse I (and optionally RNAsin) was added to each well. Cells were shaken/mixed thoroughly at room temperature for 5-10 minutes for lysis to take place and then 3 uL-5 μL of room temperature stop solution was added and wells were shaken/mixed again. After 2-5 minutes, the cell lysate plate was transferred to ice for RT-qPCR reaction setup. The lysates could also be frozen at −80° C. for later use.
(§6) In some cases, a direct lysis buffer was used. An appropriate volume of 3× lysis buffer (10 mM Tris, 150 mM NaCl, 1.5%-2.5% Igepal and 0.1-1 U/uL RNAsin, pH 7.4) was directly added to either K562 or A673 cells in media and mixed by pipetting 3 times. The plates were then incubated at room temperature with shaking/rocking for 20-50 minutes to allow for lysis to take place. After this time, the cell lysate plate was transferred to ice to set up for the RT-qPCR reactions. The lysates could also be frozen at −80° C. for later use. […]

SMN2 mRNA = assay: Splicing RT-qPCR panel, SMN2 canonical junction (CJ) mRNA; assay type: cell-based, human; settings: Homo sapiens, read-out: SMN2 CJ (decrease in CJ mRNA levels, IC50)
Protocol: as §1, §3, §4, §5
(§7) In some cases, a direct lysis buffer was used. An appropriate volume of 3× lysis buffer (10 mM Tris, 150 mM NaCl, 1.5%-2.5% Igepal and 0.1-1 U/uL RNAsin, pH 7.4) was directly added to either K562 or A673 cells in media and mixed by pipetting 3 times. The plates were then incubated at room temperature with shaking/rocking for 20-50 minutes to allow for lysis to take place. After this time, the cell lysate plate was transferred to ice to set up for the RT-qPCR reactions. The lysates could also be frozen at −80° C. for later use.
(§8) To set up 10 uL RT-qPCR reactions, cell lysates were transferred to 384-well qPCR plates containing the master mix according to the table below. The plates were sealed, gently vortexed, and spun down before the run. The volumes were adjusted accordingly in some instances where the reaction was carried in 20 μL. The table below summarizes the components of the RT-qPCR reactions:
(§9) The RT-qPCR reaction was performed using a QuantStudio (ThermoFisher) under the following fast cycling conditions. […]

Target C mRNA = assay: Splicing RT-qPCR panel, Target C canonical junction (CJ) mRNA; assay type: cell-based, human; settings: Homo sapiens, read-out: Target C CJ (decrease in CJ mRNA levels, IC50)
Protocol: as §1, §3, §4, §5, §7, §8, §9

HTT mRNA = assay: Splicing RT-qPCR assay, HTT canonical (CJ) and alternative (AJ) junction mRNA; assay type: cell-based, human; settings: Homo sapiens; for IC50: canonical junction mRNA; for AC50: alternative junction mRNA, read-out: HTT AJ (AC50, increase in AJ mRNA)
Protocol: as §1, §2, §3, §4, §5, §6

[1] = qPCR panel, read-out: MYB CJ (decrease in CJ mRNA levels, IC50)
[2] = RT-qPCR, A673 or K562 cells, 24 hours treatment
[3] = RT-qPCR, A673 or K562 cells, 24 hours treatment, read-out: MYB CJ (IC50, decrease in CJ mRNA)
[4] = 24 h, RT-qPCR, A673 or K562 cells, 24 hours treatment, read-out: HTT CJ (IC50, decrease in CJ mRNA)
[5] = qPCR panel, read-out: HTT CJ (decrease in CJ mRNA levels, IC50)

COc1cc(-c2cc3cn(C)nc3c(C)c2O)nc2ncc(N3CCNCC3)cc12 [Compound 152, 5-(4-methoxy-6-(piperazin-1-yl)-1,8-naphthyridin-2-yl)-2,7-dimethyl-2H-indazol-6-ol 2,2,2-trifluoroacetate]
Effect on Cell Viability, K562 (K562 cells): B (100-1000 nM) | IC50 (MYB mRNA; [1]): 100 to 1000 nM | AC50 (MYB mRNA; [2]): 100 to 1000 nM | IC50 (MYB mRNA; [3]): 100 to 1000 nM | IC50 (SMN2 mRNA): < 100 nM | IC50 (Target C mRNA): 1000 to 10000 nM | IC50 (HTT mRNA; [4]): 100 to 1000 nM | IC50 (HTT mRNA; [5]): 100 to 1000 nM | AC50 (HTT mRNA; [2]): 1000 to 10000 nM

Cn1cc2cc(-c3cnc4cc(C5CCNCC5)cc(F)c4n3)c(O)c(F)c2n1 [Compound 164, 7-fluoro-5-[8-fluoro-6-(piperidin-4-yl)quinoxalin-2-yl]-2-methylindazol-6-ol]
IC50 (MYB mRNA; [1]): < 100 nM | AC50 (MYB mRNA; [2]): < 100 nM | IC50 (MYB mRNA; [3]): < 100 nM | IC50 (SMN2 mRNA): < 100 nM | IC50 (Target C mRNA): < 100 nM | IC50 (HTT mRNA; [4]): < 100 nM | IC50 (HTT mRNA; [5]): < 100 nM | AC50 (HTT mRNA; [2]): < 100 nM

CN(C)C1CCN(c2ccc3nc(-c4cc5cn(C)nc5c(F)c4O)cnc3c2)CC1 [Compound 360, 5-{6-[4-(dimethylamino)piperidin-1-yl]quinoxalin-2-yl}-7-fluoro-2-methylindazol-6-ol]
Effect on Cell Viability, K562 (K562 cells): B (100-1000 nM) | IC50 (MYB mRNA; [1]): < 100 nM | AC50 (MYB mRNA; [2]): 100 to 1000 nM | IC50 (MYB mRNA; [3]): < 100 nM | IC50 (SMN2 mRNA): < 100 nM | IC50 (Target C mRNA): 1000 to 10000 nM | IC50 (HTT mRNA; [4]): 100 to 1000 nM | IC50 (HTT mRNA; [5]): 100 to 1000 nM | AC50 (HTT mRNA; [2]): > 10000 nM

Cc1cn2cc(-c3ccc4cc(N(C)[C@@H]5CCNC5)cnc4n3)cc(F)c2n1 [Compound 361, 7-{8-fluoro-2-methylimidazo[1,2-a]pyridin-6-yl}-N-methyl-N-[(3R)-pyrrolidin-3-yl]-1,8-naphthyridin-3-amine hydrochloride]
Effect on Cell Viability, K562 (K562 cells): C (1000-9999 nM) | IC50 (MYB mRNA; [1]): > 10000 nM | AC50 (MYB mRNA; [2]): > 10000 nM | IC50 (MYB mRNA; [3]): > 10000 nM | IC50 (SMN2 mRNA): > 10000 nM | IC50 (Target C mRNA): > 10000 nM | IC50 (HTT mRNA; [4]): > 10000 nM | IC50 (HTT mRNA; [5]): > 10000 nM | AC50 (HTT mRNA; [2]): > 10000 nM

C[C@@H]1CN(c2cnc3nc(-c4cc5cn(C)nc5cc4O)cc(C4CC4)c3c2)C[C@H](C)N1 [Compound 364, 5-{4-cyclopropyl-6-[(3R,5S)-3,5-dimethylpiperazin-1-yl]-1,8-naphthyridin-2-yl}-2-methylindazol-6-ol hydrochloride]
Effect on Cell Viability, K562 (K562 cells): C (1000-9999 nM) | IC50 (MYB mRNA; [1]): < 100 nM | AC50 (MYB mRNA; [2]): 100 to 1000 nM | IC50 (MYB mRNA; [3]): < 100 nM | IC50 (SMN2 mRNA): < 100 nM | IC50 (Target C mRNA): 100 to 1000 nM | IC50 (HTT mRNA; [4]): < 100 nM | IC50 (HTT mRNA; [5]): < 100 nM | AC50 (HTT mRNA; [2]): 100 to 1000 nM

CN(c1cnc2nc(-c3cc(F)c4nn(C)cc4c3)ccc2c1)[C@@H]1CCNC1 [Compound 366, 7-(7-fluoro-2-methylindazol-5-yl)-N-methyl-N-[(3R)-pyrrolidin-3-yl]-1,8-naphthyridin-3-amine]
Effect on Cell Viability, K562 (K562 cells): C (1000-9999 nM) | IC50 (MYB mRNA; [1]): 1000 to 10000 nM | AC50 (MYB mRNA; [2]): 100 to 1000 nM | IC50 (MYB mRNA; [3]): 1000 to 10000 nM | IC50 (SMN2 mRNA): 100 to 1000 nM | IC50 (Target C mRNA): > 10000 nM | IC50 (HTT mRNA; [4]): > 10000 nM | IC50 (HTT mRNA; [5]): > 10000 nM | AC50 (HTT mRNA; [2]): > 10000 nM

CN(c1cnc2nc(-c3cc(F)c4nn(C)cc4c3)ccc2c1)[C@H]1CCNC1 [Compound 367, 7-(7-fluoro-2-methylindazol-5-yl)-N-methyl-N-[(3S)-pyrrolidin-3-yl]-1,8-naphthyridin-3-amine]
Effect on Cell Viability, K562 (K562 cells): C (1000-9999 nM) | IC50 (MYB mRNA; [1]): 1000 to 10000 nM | AC50 (MYB mRNA; [2]): 1000 to 10000 nM | IC50 (MYB mRNA; [3]): 1000 to 10000 nM | IC50 (SMN2 mRNA): 100 to 1000 nM | IC50 (Target C mRNA): > 10000 nM | IC50 (HTT mRNA; [4]): > 10000 nM | IC50 (HTT mRNA; [5]): > 10000 nM | AC50 (HTT mRNA; [2]): > 10000 nM

COc1nc(-c2cc3cn(C)nc3c(C)c2O)nc2ncc(N3C[C@@H](C)N[C@@H](C)C3)cc12 [Compound 369]
Effect on Cell Viability, K562 (K562 cells): B (100-1000 nM) | IC50 (MYB mRNA; [1]): 100 to 1000 nM | AC50 (MYB mRNA; [2]): 100 to 1000 nM | IC50 (MYB mRNA; [3]): 100 to 1000 nM | IC50 (SMN2 mRNA): < 100 nM | IC50 (Target C mRNA): 1000 to 10000 nM | IC50 (HTT mRNA; [4]): 1000 to 10000 nM | IC50 (HTT mRNA; [5]): 1000 to 10000 nM | AC50 (HTT mRNA; [2]): 1000 to 10000 nM

CN1CCC[C@H]2CN(c3cnc4nc(-c5cc6cn(C)nc6cc5O)cc(Cl)c4c3)C[C@H]21 [Compound 372, 5-{6-[(4aS,7aS)-1-methyl-hexahydro-2H-pyrrolo[3,4-b]pyridin-6-yl]-4-chloro-1,8-naphthyridin-2-yl}-2-methylindazol-6-ol]
Effect on Cell Viability, K562 (K562 cells): B (100-1000 nM) | IC50 (MYB mRNA; [1]): 100 to 1000 nM | AC50 (MYB mRNA; [2]): 100 to 1000 nM | IC50 (MYB mRNA; [3]): 100 to 1000 nM | IC50 (SMN2 mRNA): < 100 nM | IC50 (Target C mRNA): > 10000 nM | IC50 (HTT mRNA; [4]): > 10000 nM | IC50 (HTT mRNA; [5]): > 10000 nM | AC50 (HTT mRNA; [2]): > 10000 nM
